Assay results published in the NIST ThermoML archive (doi:10.1016/j.jct.2016.10.023).
± gives the expanded uncertainty stated by the source.

Assay: xn = mol fraction of the nth substance listed
Conditions: Constant-volume piezometry

CCCCC [pentane] + CCCO
Conditions | mass density [kg/m3]
493.15 K, 18923 kPa, Fluid (supercritical or subcritical phases), x1 = 0.8 | 467.52 ± 2.4
493.15 K, 23193 kPa, Fluid (supercritical or subcritical phases), x1 = 0.5 | 520.3 ± 2.6
493.15 K, 26040 kPa, Liquid, x1 = 0.2 | 582.45 ± 1.2
493.15 K, 27225 kPa, Fluid (supercritical or subcritical phases), x1 = 0.8 | 497.01 ± 2.5
493.15 K, 32486 kPa, Fluid (supercritical or subcritical phases), x1 = 0.5 | 549.21 ± 2.8
493.15 K, 32782 kPa, Liquid, x1 = 0.2 | 596.07 ± 1.2
493.15 K, 37919 kPa, Fluid (supercritical or subcritical phases), x1 = 0.8 | 521.58 ± 2.6
493.15 K, 43289 kPa, Liquid, x1 = 0.2 | 615.49 ± 1.3
494.15 K, 4206 kPa, Gas, x1 = 0.5 | 154.71 ± 0.71
494.15 K, 4318 kPa, Gas, x1 = 0.5 | 183.11 ± 0.78
494.15 K, 4366 kPa, Fluid (supercritical or subcritical phases), x1 = 0.5 | 251.05 ± 1.3
498.15 K, 4515 kPa, Fluid (supercritical or subcritical phases), x1 = 0.5 | 183.07 ± 1.1
498.15 K, 4637 kPa, Fluid (supercritical or subcritical phases), x1 = 0.5 | 251 ± 1.5
498.15 K, 4641 kPa, Fluid (supercritical or subcritical phases), x1 = 0.5 | 260.06 ± 1.6
503.15 K, 912 kPa, Gas, x1 = 0.5 | 15.53 ± 0.05
503.15 K, 1255 kPa, Gas, x1 = 0.8 | 22.55 ± 0.07
503.15 K, 1464 kPa, Gas, x1 = 0.2 | 24.95 ± 0.08
503.15 K, 1642 kPa, Gas, x1 = 0.5 | 30.01 ± 0.09
503.15 K, 1866 kPa, Gas, x1 = 0.8 | 36.72 ± 0.11
503.15 K, 2163 kPa, Gas, x1 = 0.5 | 40.52 ± 0.13
503.15 K, 2523 kPa, Gas, x1 = 0.5 | 51.14 ± 0.16
503.15 K, 2701 kPa, Gas, x1 = 0.8 | 58.47 ± 0.18
503.15 K, 2838 kPa, Gas, x1 = 0.2 | 53.06 ± 0.17
503.15 K, 3137 kPa, Gas, x1 = 0.5 | 67.58 ± 0.21
503.15 K, 3169 kPa, Gas, x1 = 0.8 | 73.86 ± 0.23
503.15 K, 3305 kPa, Gas, x1 = 0.5 | 72.67 ± 0.23
503.15 K, 3338 kPa, Gas, x1 = 0.9 | 83.46 ± 0.26
503.15 K, 3585 kPa, Gas, x1 = 0.2 | 91.5 ± 0.29
503.15 K, 3654 kPa, Gas, x1 = 0.5 | 88.99 ± 0.28
503.15 K, 3800 kPa, Gas, x1 = 0.5 | 95.94 ± 0.31
503.15 K, 3948 kPa, Fluid (supercritical or subcritical phases), x1 = 0.8 | 106.5 ± 0.54
503.15 K, 4106 kPa, Fluid (supercritical or subcritical phases), x1 = 0.9 | 123.46 ± 0.63
503.15 K, 4150 kPa, Liquid, x1 = 0.2 | 419.16 ± 0.86
503.15 K, 4247 kPa, Fluid (supercritical or subcritical phases), x1 = 0.5 | 122.01 ± 0.68
503.15 K, 4264 kPa, Fluid (supercritical or subcritical phases), x1 = 0.9 | 134.25 ± 0.69
503.15 K, 4466 kPa, Fluid (supercritical or subcritical phases), x1 = 0.5 | 144.25 ± 0.77
503.15 K, 4546 kPa, Fluid (supercritical or subcritical phases), x1 = 0.8 | 140.44 ± 0.76
503.15 K, 4573 kPa, Fluid (supercritical or subcritical phases), x1 = 0.5 | 154.64 ± 0.82
503.15 K, 4621 kPa, Fluid (supercritical or subcritical phases), x1 = 0.9 | 164.11 ± 0.85
503.15 K, 4653 kPa, Fluid (supercritical or subcritical phases), x1 = 0.5 | 165.3 ± 0.89
503.15 K, 4689 kPa, Fluid (supercritical or subcritical phases), x1 = 0.8 | 156.19 ± 0.83
503.15 K, 4764 kPa, Fluid (supercritical or subcritical phases), x1 = 0.5 | 183.03 ± 0.99
503.15 K, 4818 kPa, Fluid (supercritical or subcritical phases), x1 = 0.8 | 169.95 ± 0.91
503.15 K, 4821 kPa, Fluid (supercritical or subcritical phases), x1 = 0.5 | 200.59 ± 1.1
503.15 K, 4859 kPa, Fluid (supercritical or subcritical phases), x1 = 0.9 | 189.64 ± 0.99
503.15 K, 4864 kPa, Fluid (supercritical or subcritical phases), x1 = 0.5 | 210.43 ± 1.1
503.15 K, 4865 kPa, Fluid (supercritical or subcritical phases), x1 = 0.8 | 176.2 ± 0.93
503.15 K, 4895 kPa, Fluid (supercritical or subcritical phases), x1 = 0.5 | 224.27 ± 1.2
503.15 K, 4924 kPa, Fluid (supercritical or subcritical phases), x1 = 0.8 | 181 ± 0.96
503.15 K, 4956 kPa, Fluid (supercritical or subcritical phases), x1 = 0.5 | 241.74 ± 1.3
503.15 K, 4976 kPa, Fluid (supercritical or subcritical phases), x1 = 0.5 | 250.94 ± 1.3
503.15 K, 4988 kPa, Fluid (supercritical or subcritical phases), x1 = 0.9 | 202.57 ± 1.1
503.15 K, 4993 kPa, Fluid (supercritical or subcritical phases), x1 = 0.5 | 260 ± 1.4
503.15 K, 5013 kPa, Fluid (supercritical or subcritical phases), x1 = 0.8 | 193.35 ± 1
503.15 K, 5023 kPa, Fluid (supercritical or subcritical phases), x1 = 0.5 | 270.83 ± 1.4
503.15 K, 5099 kPa, Fluid (supercritical or subcritical phases), x1 = 0.5 | 282.66 ± 1.5
503.15 K, 5158 kPa, Fluid (supercritical or subcritical phases), x1 = 0.9 | 220.9 ± 1.2
503.15 K, 5187 kPa, Fluid (supercritical or subcritical phases), x1 = 0.8 | 214.06 ± 1.1
503.15 K, 5234 kPa, Fluid (supercritical or subcritical phases), x1 = 0.8 | 219.83 ± 1.2
503.15 K, 5246 kPa, Fluid (supercritical or subcritical phases), x1 = 0.5 | 298.97 ± 1.6
503.15 K, 5287 kPa, Fluid (supercritical or subcritical phases), x1 = 0.9 | 233.29 ± 1.2
503.15 K, 5320 kPa, Fluid (supercritical or subcritical phases), x1 = 0.9 | 236.76 ± 1.2
503.15 K, 5356 kPa, Fluid (supercritical or subcritical phases), x1 = 0.9 | 241.17 ± 1.2
503.15 K, 5385 kPa, Fluid (supercritical or subcritical phases), x1 = 0.9 | 244.48 ± 1.3
503.15 K, 5390 kPa, Fluid (supercritical or subcritical phases), x1 = 0.8 | 234.94 ± 1.2
503.15 K, 5482 kPa, Fluid (supercritical or subcritical phases), x1 = 0.8 | 245.58 ± 1.2
503.15 K, 5510 kPa, Fluid (supercritical or subcritical phases), x1 = 0.5 | 320.32 ± 1.6
503.15 K, 5579 kPa, Fluid (supercritical or subcritical phases), x1 = 0.5 | 325.6 ± 1.7
503.15 K, 5611 kPa, Fluid (supercritical or subcritical phases), x1 = 0.8 | 258.82 ± 1.4
503.15 K, 5786 kPa, Fluid (supercritical or subcritical phases), x1 = 0.9 | 282.29 ± 1.4
503.15 K, 5797 kPa, Fluid (supercritical or subcritical phases), x1 = 0.8 | 272.8 ± 1.4
503.15 K, 5864 kPa, Fluid (supercritical or subcritical phases), x1 = 0.5 | 344.91 ± 1.7

Liquid
Conditions | mass density [kg/m3]
493.15 K, x1 = 0.5 | 260.13 ± 1.6
502.95 K, x1 = 0.2 | 419.16 ± 2.5
